Read-outs that look alike come from different tables or passages of the source.
What was measured:
brain cancer cell lines = test: Cell based assay, cell viability (CellTiter-Glo), brain cancer cell lines; conditions: Homo sapiens
Method: Commercially available bladder cancer, prostate cancer, lung cancer, breast cancer, blood cancer, pancreatic cancer, colorectal cancer, brain cancer, neuroblastoma, melanoma, liver cancer, cervical carcinoma, ovarian cancer, renal cancer, and papilloma cell lines were each treated with trypsin-EDTA and cultured, followed by being seeded in each well of a 96 well plate. […] The treated cells were additionally cultured for 72 hours, and cell viability was measured by using an ATP detection method (CellTiter-Glo® Luminescent Cell Viability Assay, Promega).

neuroblastoma cell lines = test: Cell based assay, cell viability (CellTiter-Glo), neuroblastoma cell lines; conditions: Homo sapiens; SH-SY5Y cell line
Method: (§1) Commercially available bladder cancer, prostate cancer, lung cancer, breast cancer, blood cancer, pancreatic cancer, colorectal cancer, brain cancer, neuroblastoma, melanoma, liver cancer, cervical carcinoma, ovarian cancer, renal cancer, and papilloma cell lines were each treated with trypsin-EDTA and cultured, followed by being seeded in each well of a 96 well plate. After 24 hours of treatment at constant temperature, the respective cells were treated with the candidate compound so that a final concentration became 0 to 2 μM. The treated cells were additionally cultured for 72 hours, and cell viability was measured by using an ATP detection method (CellTiter-Glo® Luminescent Cell Viability Assay, Promega).

[1] = system: lung cancer cell lines (e.g. NCI-H23, NCI-H1229); test: Cell based assay, cell viability (CellTiter-Glo), lung cancer cell lines; conditions: Homo sapiens, 72 hours treatment, CellTiter-Glo
Method: as §1

[2] = U138-MG, U-138 MG cell line, read-out: IC50, Brain cancer cell line U-138 MG
[3] = T98G cell line, read-out: IC50, Brain cancer cell line T98G
[4] = U-251 MG cell line, read-out: IC50, Brain cancer cell line U-251 MG
[5] = A549 cells, read-out: IC50, lung cancer cell line A549
[6] = DMS 114 cells, read-out: IC50, lung cancer cell line DMS 114
[7] = NCI-H23 cells, read-out: IC50, lung cancer cell line NCI-H23
[8] = NCI-H460 cells, read-out: IC50, lung cancer cell line NCI-H460
[9] = NCI-H522 cells, read-out: IC50, lung cancer cell line NCI-H522
[10] = NCI-H1299 cells, read-out: IC50, lung cancer cell line NCI-H1299
[11] = NCI-H1437 cells, read-out: IC50, lung cancer cell line NCI-H1437

Compound | IC50 (brain cancer cell lines; [2]) | IC50 (brain cancer cell lines; [3]) | IC50 (brain cancer cell lines; [4]) | IC50 (neuroblastoma cell lines) | IC50 [1, 5] | IC50 [1, 6] | IC50 ([1]; MRC-5 cells, read-out: IC50) | IC50 [1, 7] | IC50 [1, 8] | IC50 [1, 9] | IC50 [1, 10] | IC50 [1, 11]
CC(=O)c1c(SCc2cc(Cl)ccc2Cl)[nH]c2c(Br)ccc(Cl)c2c1=O [Compound 43, 3-acetyl-8-bromo-5-chloro-2-((2,5-dichlorobenzyl)thio)quinolin-4(1H)-one] | > 10000 nM | > 10000 nM | > 2000 nM | > 2000 nM | > 2000 nM | > 2000 nM | > 2000 nM | > 2000 nM | > 2000 nM | > 2000 nM | > 2000 nM | > 10000 nM
CC(=O)c1c(SCc2cc(F)cc(F)c2)[nH]c2c(Br)ccc(Cl)c2c1=O [Compound 45, 3-acetyl-8-bromo-5-chloro-2-((3,5-difluorobenzyl)thio)quinolin-4(1H)-one] | > 10000 nM | > 10000 nM | > 2000 nM | > 2000 nM | > 2000 nM | > 2000 nM | > 2000 nM | > 2000 nM | > 2000 nM | > 2000 nM | > 2000 nM | > 10000 nM
CC(=O)c1c(SCc2cccc(I)c2)[nH]c2c(Br)ccc(Cl)c2c1=O [Compound 47, 3-acetyl-8-bromo-5-chloro-2-((3-iodobenzyl)thio)quinolin-4(1H)-one] | > 10000 nM | > 10000 nM | > 2000 nM | > 2000 nM | > 2000 nM | > 2000 nM | > 2000 nM | > 2000 nM | > 2000 nM | > 2000 nM | > 2000 nM | > 10000 nM
CC(=O)c1c([S+]([O-])Cc2cccc(I)c2)[nH]c2c(Br)ccc(Cl)c2c1=O (stereo not drawn) [Compound 48, 3-acetyl-8-bromo-5-chloro-2-((3-iodobenzyl)sulfinyl)quinolin-4(1H)-one] | > 2000 nM | > 10000 nM | > 2000 nM | > 2000 nM | > 2000 nM | > 2000 nM | > 2000 nM | 1510 nM | > 2000 nM | > 2000 nM | > 2000 nM | > 10000 nM
CC(=O)c1c(SCc2cccc(F)c2)[nH]c2c(Br)ccc(Cl)c2c1=O [Compound 49, 3-acetyl-8-bromo-5-chloro-2-((3-fluorobenzyl)thio)quinolin-4(1H)-one] | > 10000 nM | > 10000 nM | > 2000 nM | > 2000 nM | > 2000 nM | > 2000 nM | > 2000 nM | > 2000 nM | > 2000 nM | > 2000 nM | > 2000 nM | > 10000 nM
CC(=O)c1c(SCc2ccccc2)nc2c(Br)ccc(Cl)c2c1O [Compound 52, 1-(2-(benzylthio)-8-bromo-5-chloro-4-hydroxyquinolin-3-yl)ethan-1-one] | > 10000 nM | > 10000 nM | > 2000 nM | > 2000 nM | > 2000 nM | > 2000 nM | > 2000 nM | > 2000 nM | > 2000 nM | > 2000 nM | > 2000 nM | > 10000 nM
CC(=O)c1c([S+]([O-])Cc2ccccc2)nc2c(Br)ccc(Cl)c2c1O (stereo not drawn) [Compound 53, 1-(2-(benzylsulfinyl)-8-bromo-5-chloro-4-hydroxyquinolin-3-yl)ethan-1-one] | > 10000 nM | > 10000 nM | > 2000 nM | > 2000 nM | > 2000 nM | > 2000 nM | > 2000 nM | > 2000 nM | > 2000 nM | > 2000 nM | > 2000 nM | > 10000 nM
CC(=O)c1c(S(=O)(=O)Cc2ccccc2)nc2c(Br)ccc(Cl)c2c1O [Compound 54, 1-(2-(benzylsulfonyl)-8-bromo-5-chloro-4-hydroxyquinolin-3-yl)ethan-1-one] | > 10000 nM | > 10000 nM | > 2000 nM | > 2000 nM | > 2000 nM | > 2000 nM | > 2000 nM | > 2000 nM | > 2000 nM | > 2000 nM | > 2000 nM | > 10000 nM
CC(=O)c1c([S+]([O-])Cc2ccccc2C#N)[nH]c2c(Br)ccc(Cl)c2c1=O (stereo not drawn) [Compound 58, 2-(((3-acetyl-8-bromo-5-chloro-4-oxo-1,4-dihydroquinolin-2-yl)sulfinyl)methyl)benzonitrile] | 1460 nM | > 10000 nM | 840 nM | > 2000 nM | > 2000 nM | > 2000 nM | 760 nM | 800 nM | > 2000 nM | 1940 nM | 1150 nM | > 10000 nM
COCSc1[nH]c2c(Br)ccc(Cl)c2c(=O)c1C(C)=O [Compound 61, 3-acetyl-8-bromo-5-chloro-2-((methoxymethyl)thio)quinolin-4(1H)-one] | > 10000 nM | > 10000 nM | > 2000 nM | > 2000 nM | > 2000 nM | > 2000 nM | > 2000 nM | > 2000 nM | > 2000 nM | > 2000 nM | > 2000 nM | > 10000 nM
CC(=O)c1c(S)[nH]c2c(Br)ccc(Cl)c2c1=O [Compound 62, 3-acetyl-8-bromo-5-chloro-2-mercaptoquinolin-4(1H)-one] | > 10000 nM | > 10000 nM | > 2000 nM | > 2000 nM | > 2000 nM | > 2000 nM | > 2000 nM | > 2000 nM | > 2000 nM | > 2000 nM | > 2000 nM | > 10000 nM
CC(=O)c1c([S+]([O-])Cc2ccc(C(=O)c3ccccc3)cc2)[nH]c2c(Br)ccc(Cl)c2c1=O (stereo not drawn) [Compound 63, 3-acetyl-2-((4-benzoylbenzyl)sulfinyl)-8-bromo-5-chloroquinolin-4(1H)-one] | > 2000 nM | > 10000 nM | > 2000 nM | > 2000 nM | > 2000 nM | > 2000 nM | > 2000 nM | 1700 nM | > 2000 nM | > 2000 nM | > 2000 nM | > 10000 nM
CC(=O)c1c([S+]([O-])CC#N)[nH]c2c(Br)ccc(Cl)c2c1=O (stereo not drawn) [Compound 65, 2-((3-acetyl-8-bromo-5-chloro-4-oxo-1,4-dihydroquinolin-2-yl)sulfinyl)acetonitrile] | > 10000 nM | > 10000 nM | > 2000 nM | > 2000 nM | > 2000 nM | > 2000 nM | > 2000 nM | > 2000 nM | > 2000 nM | > 2000 nM | > 2000 nM | > 10000 nM
CC(=O)c1c(SCC#N)[nH]c2c(Br)ccc(Cl)c2c1=O [Compound 66, 2-((3-acetyl-8-bromo-5-chloro-4-oxo-1,4-dihydroquinolin-2-yl)thio)acetonitrile] | > 10000 nM | > 10000 nM | > 2000 nM | > 2000 nM | > 2000 nM | > 2000 nM | > 2000 nM | > 2000 nM | > 2000 nM | > 2000 nM | > 2000 nM | > 10000 nM
CC(=O)c1c(S/C=C\C(=O)O)[nH]c2c(Br)ccc(Cl)c2c1=O [Compound 67, (Z)-3-((3-acetyl-8-bromo-5-chloro-4-oxo-1,4-dihydroquinolin-2-yl)thio)acrylic acid] | > 10000 nM | > 10000 nM | > 2000 nM | > 2000 nM | > 2000 nM | > 2000 nM | > 2000 nM | > 2000 nM | > 2000 nM | > 2000 nM | > 2000 nM | > 10000 nM
CC(=O)c1c([S+]([O-])Cc2ccc(S(F)(F)(F)(F)F)cc2)[nH]c2c(Br)ccc(Cl)c2c1=O (stereo not drawn) [Compound 68, 3-acetyl-8-bromo-5-chloro-2-((4-(pentafluoro-16-sulfanyl)benzyl)sulfinyl)quinolin-4(1H)-one] | 1140 nM | > 2000 nM | 930 nM | > 2000 nM | 1380 nM | > 2000 nM | 950 nM | 770 nM | 1410 nM | > 2000 nM | 1240 nM | > 10000 nM
CC(=O)c1c([S+]([O-])Cc2ccc(S(F)(F)(F)(F)F)cc2F)[nH]c2c(Br)ccc(Cl)c2c1=O (stereo not drawn) [Compound 69, 3-acetyl-8-bromo-5-chloro-2-((2-fluoro-4-(pentafluoro-16-sulfanyl)benzyl)sulfinyl)quinolin-4(1H)-one] | 1540 nM | > 10000 nM | 1160 nM | > 2000 nM | 1780 nM | > 2000 nM | 1050 nM | 1130 nM | 1620 nM | > 2000 nM | 1310 nM | > 10000 nM
CC(=O)c1c([S+]([O-])Cc2cccc(S(F)(F)(F)(F)F)c2)[nH]c2c(Br)ccc(Cl)c2c1=O (stereo not drawn) [Compound 77, 3-acetyl-8-bromo-5-chloro-2-((3-(pentafluoro--sulfanyl)benzyl)sulfinyl)quinolin-4(1H)-one] | 1550 nM | > 2000 nM | 1290 nM | > 2000 nM | 1840 nM | > 2000 nM | 1060 nM | 960 nM | 1510 nM | > 2000 nM | 1320 nM | > 10000 nM
CC(=O)c1c([S+]([O-])Cc2ccc(SC(F)(F)F)cc2)[nH]c2c(Cl)ccc(Cl)c2c1=O (stereo not drawn) [Compound 79, 3-acetyl-5,8-dichloro-2-((4-((trifluoromethyl)thio)benzyl)sulfinyl)quinolin-4(1H)-one] | > 10000 nM | > 10000 nM | > 2000 nM | > 2000 nM | > 2000 nM | > 2000 nM | > 2000 nM | > 2000 nM | > 2000 nM | > 2000 nM | > 2000 nM | > 10000 nM
CC(=O)c1c([S+]([O-])Cc2ccc(S(F)(F)(F)(F)F)cc2)[nH]c2c(F)ccc(F)c2c1=O (stereo not drawn) [Compound 80, 3-acetyl-5,8-difluoro-2-((4-(pentafluoro--sulfanyl)benzyl)sulfinyl)quinolin-4(1H)-one] | > 10000 nM | > 10000 nM | > 2000 nM | > 2000 nM | > 2000 nM | > 2000 nM | > 2000 nM | > 2000 nM | > 2000 nM | > 2000 nM | > 2000 nM | > 10000 nM

— patent US11464770B2, “Anticancer pharmaceutical composition” (NATIONAL CANCER CENTER, priority 2016, dated 2022)
